From the NIST ThermoML archive (doi:10.1016/j.fluid.2007.09.028)
Numbers after ± are expanded uncertainties.

Assay: xn = mol fraction of the nth substance listed
Conditions: 101 kPa, Liquid

Clc1ccccc1 [chlorobenzene] + CCC(C)O
mass density [kg/m3]
Conditions | 288.15 K | 293.15 K | 298.15 K | 303.15 K | 308.15 K | 313.15 K
x2 = 0 | 1111.81 ± 0.3 | 1106.43 ± 0.29 | 1101.04 ± 0.28 | 1095.64 ± 0.28 | 1090.23 ± 0.27 | 1084.82 ± 0.26
x2 = 0.0496 | 1097.45 ± 0.29 | 1092.02 ± 0.28 | 1086.59 ± 0.27 | 1081.16 ± 0.26 | 1075.72 ± 0.25 | 1070.28 ± 0.24
x2 = 0.1003 | 1083.13 ± 0.27 | 1077.7 ± 0.26 | 1072.25 ± 0.25 | 1066.79 ± 0.24 | 1061.32 ± 0.23 | 1055.83 ± 0.23
x2 = 0.1501 | 1069.16 ± 0.25 | 1063.74 ± 0.24 | 1058.31 ± 0.23 | 1052.85 ± 0.23 | 1047.37 ± 0.22 | 1041.88 ± 0.21
x2 = 0.2 | 1055.05 ± 0.23 | 1049.66 ± 0.23 | 1044.24 ± 0.22 | 1038.8 ± 0.21 | 1033.33 ± 0.2 | 1027.86 ± 0.19
x2 = 0.2502 | 1040.78 ± 0.22 | 1035.43 ± 0.21 | 1030.05 ± 0.2 | 1024.63 ± 0.19 | 1019.19 ± 0.18 | 1013.73 ± 0.18
x2 = 0.3007 | 1026.39 ± 0.2 | 1021.07 ± 0.19 | 1015.73 ± 0.18 | 1010.35 ± 0.18 | 1004.94 ± 0.17 | 999.501 ± 0.16
x2 = 0.3497 | 1012.26 ± 0.19 | 1006.99 ± 0.18 | 1001.69 ± 0.17 | 996.346 ± 0.17 | 990.966 ± 0.18 | 985.56 ± 0.19
x2 = 0.3999 | 997.723 ± 0.18 | 992.501 ± 0.19 | 987.245 ± 0.19 | 981.952 ± 0.2 | 976.612 ± 0.21 | 971.251 ± 0.22
x2 = 0.4499 | 983.091 ± 0.21 | 977.922 ± 0.21 | 972.717 ± 0.22 | 967.468 ± 0.23 | 962.174 ± 0.24 | 956.834 ± 0.24
x2 = 0.5 | 968.364 ± 0.24 | 963.258 ± 0.24 | 958.109 ± 0.25 | 952.917 ± 0.26 | 947.675 ± 0.27 | 942.399 ± 0.27
x2 = 0.5498 | 953.525 ± 0.27 | 948.484 ± 0.27 | 943.398 ± 0.28 | 938.263 ± 0.29 | 933.079 ± 0.29 | 927.858 ± 0.3
x2 = 0.5999 | 938.418 ± 0.3 | 933.448 ± 0.3 | 928.431 ± 0.31 | 923.362 ± 0.32 | 918.237 ± 0.33 | 913.072 ± 0.33
x2 = 0.6499 | 923.235 ± 0.33 | 918.341 ± 0.34 | 913.397 ± 0.34 | 908.397 ± 0.35 | 903.335 ± 0.35 | 898.213 ± 0.36
x2 = 0.7 | 907.848 ± 0.36 | 903.04 ± 0.37 | 898.18 ± 0.37 | 893.259 ± 0.38 | 888.276 ± 0.39 | 883.238 ± 0.39
x2 = 0.75 | 892.266 ± 0.39 | 887.557 ± 0.4 | 882.791 ± 0.4 | 877.959 ± 0.41 | 873.061 ± 0.42 | 868.109 ± 0.42
x2 = 0.8 | 876.537 ± 0.42 | 871.933 ± 0.43 | 867.265 ± 0.44 | 862.532 ± 0.44 | 857.722 ± 0.45 | 852.839 ± 0.46
x2 = 0.8498 | 860.576 ± 0.46 | 856.092 ± 0.46 | 851.542 ± 0.47 | 846.918 ± 0.47 | 842.221 ± 0.48 | 837.46 ± 0.49
x2 = 0.8997 | 844.324 ± 0.49 | 839.965 ± 0.49 | 835.544 ± 0.5 | 831.044 ± 0.51 | 826.464 ± 0.51 | 821.827 ± 0.52
x2 = 0.9502 | 827.634 ± 0.52 | 823.427 ± 0.53 | 819.146 ± 0.53 | 814.788 ± 0.54 | 810.337 ± 0.54 | 805.821 ± 0.55

Clc1ccccc1 [chlorobenzene] + CCCCO
mass density [kg/m3]
Conditions | 288.15 K | 293.15 K | 298.15 K | 303.15 K | 308.15 K | 313.15 K
x2 = 0 | 1111.81 ± 0.3 | 1106.43 ± 0.29 | 1101.04 ± 0.28 | 1095.64 ± 0.28 | 1090.23 ± 0.27 | 1084.82 ± 0.26
x2 = 0.0491 | 1098.36 ± 0.29 | 1092.97 ± 0.28 | 1087.57 ± 0.27 | 1082.16 ± 0.26 | 1076.75 ± 0.25 | 1071.34 ± 0.25
x2 = 0.1013 | 1084.16 ± 0.27 | 1078.81 ± 0.26 | 1073.45 ± 0.25 | 1068.07 ± 0.24 | 1062.67 ± 0.23 | –
x2 = 0.1492 | 1071.13 ± 0.25 | 1065.83 ± 0.24 | 1060.5 ± 0.23 | 1055.16 ± 0.22 | 1049.8 ± 0.21 | 1044.42 ± 0.2
x2 = 0.2004 | 1057.1 ± 0.23 | 1051.85 ± 0.22 | 1046.57 ± 0.21 | 1041.28 ± 0.2 | 1035.97 ± 0.2 | 1030.63 ± 0.19
x2 = 0.2501 | 1043.32 ± 0.21 | 1038.12 ± 0.2 | 1032.91 ± 0.19 | 1027.68 ± 0.18 | 1022.42 ± 0.18 | 1017.14 ± 0.17
x2 = 0.3 | 1029.41 ± 0.19 | 1024.28 ± 0.18 | 1019.13 ± 0.17 | 1013.96 ± 0.17 | 1008.76 ± 0.16 | 1003.55 ± 0.15
x2 = 0.3507 | 1015.11 ± 0.17 | 1010.04 ± 0.16 | 1004.96 ± 0.15 | 999.858 ± 0.15 | 994.721 ± 0.15 | 989.562 ± 0.16
x2 = 0.4 | 1001.06 ± 0.15 | 996.06 ± 0.15 | 991.039 ± 0.16 | 985.993 ± 0.17 | 980.92 ± 0.18 | 975.825 ± 0.18
x2 = 0.4502 | 986.537 ± 0.17 | 981.622 ± 0.18 | 976.686 ± 0.18 | 971.72 ± 0.19 | 966.72 ± 0.2 | 961.715 ± 0.21
x2 = 0.5 | 972.013 ± 0.19 | 967.172 ± 0.2 | 962.314 ± 0.21 | 957.429 ± 0.21 | 952.506 ± 0.22 | 947.561 ± 0.23
x2 = 0.5499 | 957.246 ± 0.22 | 952.491 ± 0.22 | 947.717 ± 0.23 | 942.914 ± 0.24 | 938.072 ± 0.24 | 933.199 ± 0.25
x2 = 0.5998 | 942.296 ± 0.24 | 937.639 ± 0.25 | 932.95 ± 0.26 | 928.23 ± 0.26 | 923.477 ± 0.27 | 918.689 ± 0.28
x2 = 0.6504 | 926.891 ± 0.27 | 922.329 ± 0.27 | 917.738 ± 0.28 | 913.116 ± 0.29 | 908.455 ± 0.29 | 903.772 ± 0.3
x2 = 0.7002 | 911.543 ± 0.29 | 907.078 ± 0.3 | 902.582 ± 0.31 | 898.054 ± 0.31 | 893.49 ± 0.32 | 888.906 ± 0.33
x2 = 0.749 | 896.297 ± 0.32 | 891.927 ± 0.32 | 887.529 ± 0.33 | 883.097 ± 0.34 | 878.634 ± 0.34 | 874.13 ± 0.35
x2 = 0.7995 | 880.209 ± 0.34 | 875.948 ± 0.35 | 871.658 ± 0.36 | 867.339 ± 0.36 | 862.977 ± 0.37 | 858.585 ± 0.38
x2 = 0.849 | 864.175 ± 0.37 | 860.018 ± 0.38 | 855.838 ± 0.38 | 851.632 ± 0.39 | 847.387 ± 0.4 | 843.125 ± 0.4
x2 = 0.9006 | 847.199 ± 0.4 | 843.162 ± 0.4 | 839.105 ± 0.41 | 835.018 ± 0.42 | 830.894 ± 0.42 | 826.737 ± 0.43
x2 = 0.9505 | 830.398 ± 0.43 | 826.483 ± 0.43 | 822.545 ± 0.44 | 818.578 ± 0.44 | 814.579 ± 0.45 | 810.547 ± 0.46
